Laboratory results from patent US10117873B2, “6-amino-purin-8-one compounds” (GlaxoSmithKline LLC, priority 2008, dated 2018).

What was measured:
Type in all cases: cell-based
Interferon-α = assay: Induction of Interferon-α using cryopreserved human PBMCs; settings: PBMC, 24 h incubation, normalized to 1 uM resiquimod, read-out: mean pEC50 for induction of Interferon-α (converted)
Procedure: Assay for the Induction of Interferon-α Using Cryopreserved Human Peripheral Blood Mononuclear Cells (PBMCs)
Compounds were dissolved in DMSO. Serial 2-fold dilutions with DMSO were prepared and 0.25 μl dispensed into 384-well clear Greiner polypropylene plates.
Blood samples of up to 200 ml were obtained from healthy human donors. Whole blood in 25 ml volumes was overlaid onto 15 ml Ficoll® gradients in Leucosep® tubes, and centrifuged at 1000 g for 20 min. Cells in the band at the plasma/Histopaque® interface were carefully removed and washed twice with PBS (centrifuged at 400 g for 5 min to harvest). The final pellet was resuspended in freezing medium (90% Heat-inactivated serum, 10% DMSO) to a cell concentration of 4×10^7 cells/ml. The resuspended cells were then cryopreserved (frozen) using a rate controlled freezer, and stored at −140° C. for up to 4 months.
Immediately prior to assay, vials of cryopreserved (frozen) PBMCs were thawed rapidly in a water bath at 37° C. A 1:10 dilution of the cells in trypan blue was prepared and counted. The PBMCs were then diluted in growth media [RPMI 1640 containing 10% fetal calf serum (invitrogen), Penicillin+[…] (Gibco cat. #25030-024, 1:50), L-Glutamine 2 mM, and 1000 units/ml recombinant human IFN-gamma (Preprotech catalogue #300-02)] to a density of 1×10^6 cells/ml, and 50 ul/well dispensed to 384-well clear Greiner polypropylene plates containing 0.25 μl DMSO or test compound in 0.25 μl DMSO. […] Plates were incubated for 24 h at 37° C. in 5% CO2.
A multi-isoform immunoassay was used to quantify IFN-α in PBMC supernatants. Rabbit polyclonal antibody against human IFN-α (catalogue number 31101, Stratech Scientific) was diluted 1:10000 in assay buffer (RPMI 1640 containing 10% fetal calf serum, Invitrogen) and 20 μl was added to each well of an MSD® (Meso-Scale® Discovery) single small-spot 384-well GAR (goat anti-rabbit antibody coated) plate.
The plate was incubated for 1 h at room temperature with vigorous shaking. Following three washes with PBS, 20 μl of cell supernatant were added to each well of the plate. The plate was then incubated for 1 h at room temperature with vigorous shaking. A pair of monoclonal antibodies to IFN-α (catalogue numbers 21100 and 21112, Stratech Scientific) were labelled with sulfo-TAG (MSD®), diluted 1:1000 in assay buffer and 20 μl added to each well of the plate. The plate was further incubated for 1 h at room temperature with vigorous shaking. Following three washes with PBS, 30 μl of ×2 T buffer (MSD®) was added to each well and the plate was read on an MSD® Sector 6000 plate reader.
Data were normalized to internal plate controls of 1 uM resiquimod (n=16) and DMSO (n=16). pEC50 values were derived by 4-parameter curve fit with IRLS in ActivityBase, from 11-point, two-fold serial dilution of test compounds.

TNF-α = assay: Induction of TNF-α using fresh human PBMCs; settings: PBMC, 24 hr incubation, relative to 2 μM resiquimod control, read-out: mean pEC50 for induction of TNF-α (converted)
Procedure: (§1) Assay for the Induction of Interferon-α and TNF-α Using Fresh Human Peripheral Blood Mononuclear Cells (PBMCs)
(§2) Compounds were dissolved and serially diluted in DMSO to give 100× the required concentration range using a Biomek® 2000. 1 ul of test compound was transferred into 96-well tissue culture plates using a Biomek® FX. Each compound was assayed in duplicate for each donor. Each plate contained a dilution series of the TLR7/8 agonist resiquimod as standard and Column 11 contained 1 μl of 200 μM resiquimod (giving a 2 μM final concentration, used to define the approximate maximal response to resiquimod).
(§3) Blood samples from two human donors were collected into sodium heparin (10 U/ml). 25 ml volumes of whole blood were overlaid onto 15 mls Histopaque® in LEUCOSEP™ tubes which were centrifuged at 800 g for 20 min and the band at the plasma/histopaque interface carefully removed. The collected cells were centrifuged at 2500 rpm for 10 min and the pellet resuspended in 10 ml of media (RPMI 1640 (Low endotoxin) supplemented with 10% v/v foetal calf serum (FCS, low endotoxin) 100 U/ml penicillin G, 100 μg/ml streptomycin, 10 mM L-glutamine and 1× non-essential amino acids). A 1:20 dilution of the cells was prepared using trypan blue & the cells counted using a haemocytometer. The PBMCs were diluted to give a final concentration of 2×10^6/ml and 100 ul of this cells suspension was added to wells containing 1 μl of diluted test compound.
(§4) The cell preparations were incubated for 24 hr (37° C., 95% air, 5% CO2) after which a sample of the supernatant was removed using the Biomek® FX and assayed for both IFN-α and TNF-α using the MSD® (Mesoscale Discovery) electrochemiluminescence assay platform. The IFN-α assay was carried out similarly to that described above. The TNF-α assay was carried out as per kit instructions (Cat No K111BHB).
(§5) Cytokine released was expressed as a percentage of the 2 μM resiquimod control (column 11). This percentage was plotted against compound concentration and the pEC50 for the response determined by non-linear least squares curve fitting. For the IFN-α responses generally a 4 parameter logistic model was selected. For the TNF responses where a clear maximum response was obtained (i.e. a well defined plateau in the response was observed) then a 4 parameter model was generally used. If the upper asymptote of the curve wasn't well defined then the curve fitting was generally constrained to a maximal response of 100% (i.e. to the response to 2 μM resiquimod) or to the response of the highest concentration tested if this was greater than the resiquimod response. Some curves were bell shaped for one or both cytokines and the cytokine data on the down slope of the bell shaped response (i.e. concentrations above those giving the maximal response) were generally excluded from the fit, usually with the exception of the concentration immediately above the peak response. Curve fitting thus concentrated on the up slope of the dose response curve.

IFN-α = assay: Induction of Interferon-α using fresh human PBMCs; settings: PBMC, 24 hr incubation, relative to 2 μM resiquimod control, read-out: mean pEC50 for induction of IFN-α (converted)
Procedure: as §1, §2, §3, §4, §5

## CCCCOc1nc(N)c2[nH]c(=O)n(CCCN3CCC3)c2n1 [Example 1, 6-Amino-9-[3-(1-azetidinyl)propyl]-2-(butyloxy)-7,9-dihydro-8H-purin-8-one]
Interferon-α
  EC50: < 3.16 µM

## CCCCOc1nc(N)c2[nH]c(=O)n(CCCN3CCCC3)c2n1 [Example 2, 6-Amino-2-(butyloxy)-9-[3-(1-pyrrolidinyl)propyl]-7,9-dihydro-8H-purin-8-one]
Interferon-α
  EC50: < 3.16 µM

## CCCCOc1nc(N)c2[nH]c(=O)n(CCCN3CCCCCC3)c2n1 [Example 3, 6-Amino-2-(butyloxy)-9-[3-(hexahydro-1H-azepin-1-yl)propyl]-7,9-dihydro-8H-purin-8-one]
Interferon-α
  EC50: < 3.16 µM

## CCCCOc1nc(N)c2[nH]c(=O)n(CCCCN3CCC3)c2n1 [Example 4, 6-Amino-9-[4-(1-azetidinyl)butyl]-2-(butyloxy)-7,9-dihydro-8H-purin-8-one]
Interferon-α
  EC50: < 3.16 µM

## CCCCOc1nc(N)c2[nH]c(=O)n(CCCCN3CCCC3)c2n1 [Example 5, 6-Amino-2-(butyloxy)-9-[4-(1-pyrrolidinyl)butyl]-7,9-dihydro-8H-purin-8-one]
TNF-α
  EC50: > 3.16 µM
IFN-α
  EC50: < 0.0316 µM
Interferon-α
  EC50: < 3.16 µM

## CCCCOc1nc(N)c2[nH]c(=O)n(CCCCN3CCCCC3)c2n1 [Example 6, 6-Amino-2-(butyloxy)-9-[4-(1-piperidinyl)butyl]-7,9-dihydro-8H-purin-8-one]
TNF-α
  EC50: > 1 µM
IFN-α
  EC50: ≤ 0.01 µM
Interferon-α
  EC50: < 3.16 µM

## CCCCOc1nc(N)c2[nH]c(=O)n(CCCCN3CCCCCC3)c2n1 [Example 7, 6-Amino-2-(butyloxy)-9-[4-(hexahydro-1H-azepin-1-yl)butyl]-7,9-dihydro-8H-purin-8-one]
TNF-α
  EC50: > 1 µM
IFN-α
  EC50: ≤ 0.01 µM
Interferon-α
  EC50: < 3.16 µM

## CCCCOc1nc(N)c2[nH]c(=O)n(CCCCCN3CCC3)c2n1 [Example 8, 6-Amino-9-[5-(1-azetidinyl)pentyl]-2-(butyloxy)-7,9-dihydro-8H-purin-8-one]
Interferon-α
  EC50: < 3.16 µM

## CCCCOc1nc(N)c2[nH]c(=O)n(CCCCCN3CCCC3)c2n1 [Example 9, 6-Amino-2-(butyloxy)-9-[5-(1-pyrrolidinyl)pentyl]-7,9-dihydro-8H-purin-8-one]
TNF-α
  EC50: > 3.16 µM
IFN-α
  EC50: < 0.0316 µM
Interferon-α
  EC50: < 3.16 µM

## CCCCOc1nc(N)c2[nH]c(=O)n(CCCCCN3CCCCC3)c2n1 [Example 10, 6-Amino-2-(butyloxy)-9-[5-(1-piperidinyl)pentyl]-7,9-dihydro-8H-purin-8-one]
TNF-α
  EC50: > 1 µM
IFN-α
  EC50: ≤ 0.01 µM
Interferon-α
  EC50: < 3.16 µM

## CCCCOc1nc(N)c2[nH]c(=O)n(CCCCCN3CCCCCC3)c2n1 [Example 11, 6-Amino-2-(butyloxy)-9-[5-(hexahydro-1H-azepin-1-yl)pentyl]-7,9-dihydro-8H-purin-8-one]
TNF-α
  EC50: > 1 µM
IFN-α
  EC50: ≤ 0.01 µM
Interferon-α
  EC50: < 3.16 µM

## CCCCNc1nc(N)c2[nH]c(=O)n(CCCN3CCCCC3)c2n1 [Example 16, 6-Amino-2-(butylamino)-9-[3-(1-piperidinyl)propyl]-7,9-dihydro-8H-purin-8-one]
Interferon-α
  EC50: < 3.16 µM

## CCCCNc1nc(N)c2[nH]c(=O)n(CCCCN3CCCCC3)c2n1 [Example 17, 6-Amino-2-(butylamino)-9-[4-(1-piperidinyl)butyl]-7,9-dihydro-8H-purin-8-one]
Interferon-α
  EC50: < 3.16 µM

## CCCCNc1nc(N)c2[nH]c(=O)n(CCCCCN3CCCCCC3)c2n1 [Example 19, 6-Amino-2-(butylamino)-9-[5-(hexahydro-1H-azepin-1-yl)pentyl]-7,9-dihydro-8H-purin-8-one]
Interferon-α
  EC50: < 3.16 µM

## CC[C@H](C)Oc1nc(N)c2[nH]c(=O)n(CCCCN3CCCCC3)c2n1 [Example 24, 6-Amino-2-{[(1S)-1-methylpropyl]oxy}-9-[4-(1-piperidinyl)butyl]-7,9-dihydro-8H-purin-8-one]
Interferon-α
  EC50: < 3.16 µM

## CCCC[C@H](C)Oc1nc(N)c2[nH]c(=O)n(CCCCN3CCCCC3)c2n1 [Example 25, 6-Amino-2-{[(1S)-1-methylpentyl]oxy}-9-[4-(1-piperidinyl)butyl]-7,9-dihydro-8H-purin-8-one]
Interferon-α
  EC50: < 3.16 µM

## CC(C)Oc1nc(N)c2[nH]c(=O)n(CCCCCN3CCCCC3)c2n1 [Example 26, 6-Amino-2-[(1-methylethyl)oxy]-9-[5-(1-piperidinyl)pentyl]-7,9-dihydro-8H-purin-8-one]
Interferon-α
  EC50: < 3.16 µM

## Nc1nc(OC2CCC2)nc2c1[nH]c(=O)n2CCCCN1CCCCC1 [Example 27, 6-Amino-2-(cyclobutyloxy)-9-[4-(1-piperidinyl)butyl]-7,9-dihydro-8H-purin-8-one]
Interferon-α
  EC50: < 3.16 µM

## Nc1nc(OC2CCCC2)nc2c1[nH]c(=O)n2CCCCN1CCCCC1 [Example 28, 6-Amino-2-(cyclopentyloxy)-9-[4-(1-piperidinyl)butyl]-7,9-dihydro-8H-purin-8-one]
Interferon-α
  EC50: < 3.16 µM

## Nc1nc(OC2CCCCC2)nc2c1[nH]c(=O)n2CCCCN1CCCCC1 [Example 29, 6-Amino-2-(cyclohexyloxy)-9-[4-(1-piperidinyl)butyl]-7,9-dihydro-8H-purin-8-one]
Interferon-α
  EC50: < 3.16 µM

## CCC[C@@H](C)Nc1nc(N)c2[nH]c(=O)n(CCCCN3CCCCC3)c2n1 [Example 30, 6-Amino-2-{[(1R)-1-methylbutyl]amino}-9-[4-(1-piperidinyl)butyl]-7,9-dihydro-8H-purin-8-one]
Interferon-α
  EC50: < 3.16 µM

## CCC[C@H](C)Nc1nc(N)c2[nH]c(=O)n(CCCCN3CCCCC3)c2n1 [Example 31, 6-Amino-2-{[(1S)-1-methylbutyl]amino}-9-[4-(1-piperidinyl)butyl]-7,9-dihydro-8H-purin-8-one]
Interferon-α
  EC50: < 3.16 µM

## CCC[C@H](C)Oc1nc(N)c2[nH]c(=O)n(CCCN3CCCCC3)c2n1 [Example 32, 6-Amino-2-{[(1S)-1-methylbutyl]oxy}-9-[3-(1-piperidinyl)propyl]-7,9-dihydro-8H-purin-8-one]
Interferon-α
  EC50: < 3.16 µM

## CC[C@H](C)Oc1nc(N)c2[nH]c(=O)n(CCCCCN3CCCCC3)c2n1 [Example 33, 6-Amino-2-{[(1S)-1-methylpropyl]oxy}-9-[5-(1-piperidinyl)pentyl]-7,9-dihydro-8H-purin-8-one]
Interferon-α
  EC50: < 3.16 µM

## CCCCOc1nc(N)c2[nH]c(=O)n(CCCN3CCCCC3)c2n1 [Example 34, 6-Amino-2-(butyloxy)-9-[3-(1-piperidinyl)propyl]-7,9-dihydro-8H-purin-8-one]
Interferon-α
  EC50: < 3.16 µM
